Key:
[1] = molecular target: T1, human recombinant AChE (Homo sapiens, UniProt P22303); assay: biochemical; details: for inhibition at 10 µM: read-out: hAChE % inhibition at 10 μM ± SD, 10 μM inhibitor, human recombinant AChE, n = 3
T1 construct: purchased Aldrich (Milan, Italy)
Experimental: (§1) All enzymes and chemicals were purchased from Aldrich (Milan, Italy). Inhibition assays were performed in 96-well plates (Greiner Bio-One GmbH, Frickenhausen, Germany) using an Infinite M1000 plate reader (Tecan, Milan, Italy). Incubations were performed in triplicate, and final inhibition values were determined as mean ± SEM (n = 3).
The inhibition of human recombinant AChE was determined as already reported by applying Ellman’s spectrophotometric method.

[2] = molecular target: T2, hMAO-A (Homo sapiens, UniProt P21397); assay: biochemical; details: read-out: hMAO-A % inhibition at 10 μM ± SD; 10 μM inhibitor, human recombinant MAO-A, n = 3
T2 construct: purchased Aldrich (Milan, Italy)
T2 sequence (P21397 1-527): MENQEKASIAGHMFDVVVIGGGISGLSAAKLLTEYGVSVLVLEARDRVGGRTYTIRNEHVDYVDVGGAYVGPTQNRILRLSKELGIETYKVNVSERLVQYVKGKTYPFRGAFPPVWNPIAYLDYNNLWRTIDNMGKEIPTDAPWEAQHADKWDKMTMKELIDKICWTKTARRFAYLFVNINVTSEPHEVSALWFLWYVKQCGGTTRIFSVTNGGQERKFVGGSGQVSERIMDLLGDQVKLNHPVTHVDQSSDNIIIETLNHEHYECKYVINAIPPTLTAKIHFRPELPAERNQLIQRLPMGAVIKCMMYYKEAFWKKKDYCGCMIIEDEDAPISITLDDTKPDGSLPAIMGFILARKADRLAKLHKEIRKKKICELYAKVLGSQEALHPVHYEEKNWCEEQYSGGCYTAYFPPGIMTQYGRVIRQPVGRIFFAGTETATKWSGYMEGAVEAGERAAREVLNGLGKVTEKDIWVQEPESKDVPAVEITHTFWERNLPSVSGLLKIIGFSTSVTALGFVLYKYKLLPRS
Experimental: as §1
(§2) Incubations were set at 37 °C in phosphate buffer with a pH of 7.4 for 20 min before the addition of enzyme, and the fluorescence was measured after additional incubation of 30 min.

[3] = molecular target: T3, hMAO-B (Homo sapiens, UniProt P27338); assay: biochemical; details: human recombinant MAO-B; for IC50: kynuramine, 37 °C, pH 7.4, n = 3, read-out: hMAO-B IC50 ± SEM; for inhibition at 10 µM: read-out: hMAO-B % inhibition at 10 μM ± SD, 10 μM inhibitor, n = 3
T3 construct: purchased Aldrich (Milan, Italy)
T3 sequence (P27338 1-520): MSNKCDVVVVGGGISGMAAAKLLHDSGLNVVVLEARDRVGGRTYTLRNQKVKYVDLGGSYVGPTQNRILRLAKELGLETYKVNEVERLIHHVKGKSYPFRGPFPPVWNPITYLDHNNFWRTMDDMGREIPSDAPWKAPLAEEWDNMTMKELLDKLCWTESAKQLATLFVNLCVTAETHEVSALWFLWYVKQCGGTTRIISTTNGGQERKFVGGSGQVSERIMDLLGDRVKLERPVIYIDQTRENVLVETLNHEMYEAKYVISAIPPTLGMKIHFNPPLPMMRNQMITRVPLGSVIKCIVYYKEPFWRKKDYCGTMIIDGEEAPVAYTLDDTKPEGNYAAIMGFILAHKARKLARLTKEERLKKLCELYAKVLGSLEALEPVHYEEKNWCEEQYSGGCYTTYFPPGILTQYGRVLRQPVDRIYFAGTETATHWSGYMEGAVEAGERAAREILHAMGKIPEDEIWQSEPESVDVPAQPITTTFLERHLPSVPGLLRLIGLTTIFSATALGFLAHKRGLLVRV
Experimental: as §1, §2

[4] = in silico and in vitro studies; cited from earlier work
[5] = tested on: hAChE; parameters: method as in PMID 10213168; details: read-out: hAChE IC50 in vitro; cited from earlier work

T1 sequence (P22303 32-614): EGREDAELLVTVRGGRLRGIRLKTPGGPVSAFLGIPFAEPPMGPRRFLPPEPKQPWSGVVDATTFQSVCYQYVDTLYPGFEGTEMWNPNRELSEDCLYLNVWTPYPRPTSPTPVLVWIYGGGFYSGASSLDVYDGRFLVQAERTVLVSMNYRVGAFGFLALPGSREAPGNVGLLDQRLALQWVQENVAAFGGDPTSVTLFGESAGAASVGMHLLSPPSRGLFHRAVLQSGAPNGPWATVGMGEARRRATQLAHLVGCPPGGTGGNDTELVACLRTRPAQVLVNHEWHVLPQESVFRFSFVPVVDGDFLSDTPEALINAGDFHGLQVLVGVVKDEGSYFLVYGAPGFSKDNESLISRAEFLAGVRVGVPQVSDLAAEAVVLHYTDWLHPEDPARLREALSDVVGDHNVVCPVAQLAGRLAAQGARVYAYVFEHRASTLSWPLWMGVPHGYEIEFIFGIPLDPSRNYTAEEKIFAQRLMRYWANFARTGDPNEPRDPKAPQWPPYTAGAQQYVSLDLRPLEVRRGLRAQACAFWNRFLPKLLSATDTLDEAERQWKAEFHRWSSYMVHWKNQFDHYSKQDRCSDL

Structure (SMILES) | inhibition at 10 µM [1] [%] | inhibition at 10 µM [2] [%] | IC50 [3] [nM] | inhibition at 10 µM [3] [%] | pharmacokinetic properties [4] | IC50 [1] [nM] | IC50 [5] [nM]
COc1ccccc1N1CCN(CCCOc2cc(C)cc3oc(=O)cc(C)c23)CC1 [Compound 1, 4,7-dimethyl-5-{3-[4-(2-methoxyphenyl)piperazin-1-yl]propoxy}coumarin] | 61 ± 1 | 44 ± 4 | 2180 ± 480 | – | – | – | –
COc1ccccc1N1CCN(CCCCOc2cc(C)cc3oc(=O)cc(C)c23)CC1 [Compound 2, 4,7-dimethyl-5-[4-(4-(2-methoxyphenyl)piperazin-1-yl)butoxy]coumarin] | 61 ± 4 | 19 ± 1 | – | 33 ± 2 | – | – | –
COc1cccc(N2CCN(CCCOc3cc(C)cc4oc(=O)cc(C)c34)CC2)c1 [Compound 3, 4,7-dimethyl-5-[3-(4-(3-methoxyphenyl)piperazin-1-yl)propoxy]coumarin] | 53 ± 2 | 39 ± 5 | 1880 ± 450 | – | excellent pharmacokinetic properties | – | –
COc1cccc(N2CCN(CCCCOc3cc(C)cc4oc(=O)cc(C)c34)CC2)c1 [Compound 4, 4,7-dimethyl-5-[4-(4-(3-methoxyphenyl)piperazin-1-yl)butoxy]coumarin] | 56 ± 1 | 38 ± 4 | 3180 ± 630 | – | – | – | –
COc1ccccc1N1CCN(CCCOc2c(C(C)=O)c(C)cc3oc(=O)cc(C)c23)CC1 [Compound 5, 6-acetyl-4,7-dimethyl-5-[3-(4-(2-methoxyphenyl)piperazin-1-yl)propoxy]coumarin] | 50 ± 6 | 22 ± 3 | – | 34 ± 2 | – | – | –
COc1ccccc1N1CCN(CCCCOc2c(C(C)=O)c(C)cc3oc(=O)cc(C)c23)CC1 [Compound 6, 6-acetyl-4,7-dimethyl-5-[4-(4-(2-methoxyphenyl)piperazin-1-yl)butoxy]coumarin] | 48 ± 1 | 30 ± 5 | – | 43 ± 3 | – | – | –
COc1cccc(N2CCN(CCCOc3c(C(C)=O)c(C)cc4oc(=O)cc(C)c34)CC2)c1 [Compound 7, 6-acetyl-4,7-dimethyl-5-[3-(4-(3-methoxyphenyl)piperazin-1-yl)propoxy]coumarin] | 46 ± 3 | 39 ± 3 | – | 35 ± 3 | – | – | –
COc1cccc(N2CCN(CCCCOc3c(C(C)=O)c(C)cc4oc(=O)cc(C)c34)CC2)c1 [Compound 8, 6-acetyl-4,7-dimethyl-5-[4-(4-(3-methoxyphenyl)piperazin-1-yl)butoxy]coumarin] | 54 ± 8 | 55 ± 2 | – | 26 ± 2 | – | – | –
COc1ccccc1N1CCN(CCCOc2ccc3c(C)cc(=O)oc3c2C(C)=O)CC1 [Compound 9, 8-acetyl-7-{3-[4-(2-methoxyphenyl)piperazin-1-yl]propoxy}-4-methylchromen-2-one] | 59 ± 7 | 32 ± 4 | 4760 ± 340 | – | – | – | –
COc1ccccc1N1CCN(CCCCOc2ccc3c(C)cc(=O)oc3c2C(C)=O)CC1 [Compound 10, 8-acetyl-7-{4-[4-(2-methoxyphenyl)piperazin-1-yl]butoxy}-4-methylchromen-2-one] | – | 52 ± 4 | – | 24 ± 1 | excellent pharmacokinetic properties | 1520 ± 660 | –
COc1cc2oc(=O)c(C)c(C)c2cc1OCCCN1CCN(c2ccccc2OC)CC1 [Ensaculin] | – | – | – | – | – | – | 360

Source: article PMC11641184, “Coumarin Derivative Hybrids: Novel Dual Inhibitors Targeting Acetylcholinesterase and Monoamine Oxidases for Alzheimer’s Therapy” (International Journal of Molecular Sciences, 2024)
